Experiment: gradient 5% acetonitrile 3 min, to 50% in 2 min, to 85% in 15 min, held 3 min, 100 µL/min
Conditions: column: Zorbax Extend-C18 2.1 x 50 mm; eluents: water / acetonitrile, 0.1% formic acid
How it was run: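 Pure standards were run in mixtures of ~100 molecules by HPLC coupled to a quadrupole time-of-flight mass spectrometer. The column was a Zorbax Extend-C18 (2.1 × 50 mm, 1.8 μm) at 100 μL/min, with water and acetonitrile each containing 0.1% formic acid, in positive and negative ionization mode. Dead and dwell volumes were 40 μL and 900 μL. Retention time was taken from computationally picked adduct peaks, each manually inspected, with data collected over 3 months.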

SMILES	RP-LC retention time
Cc1ccc(F)cc1S(=O)(=O)N1CCN(c2ccc(N3CCOCC3)nn2)CC1	592 s
C=CCNC(=O)N1CCCN(C2=NS(=O)(=O)C(c3ccc(F)cc3)=C2C)CC1	736 s
Cc1ccc(NC(=O)Cn2nc(N3CCC(C)CC3)c3ccccc3c2=O)c(C)c1	1160 s
COc1ccc2c(CCNC(=O)COc3ccc(Cl)cc3)c[nH]c2c1	879 s
Cc1nc2cc(N3CCC(C(=O)NCc4ccc5c(c4)OCO5)CC3)cnc2nc1C	699 s
CCC(C)C(=O)N1CC(N(Cc2ccncc2)CC(C)C)C1 (stereo unspecified)	635 s
CCOC(=O)Cc1ccc(NC(=O)NC2CCN(c3ccc(C)c(C)c3)C2=O)cc1 (stereo unspecified)	877 s
Cc1ccc2nc3c(c(C(=O)NCC(C)C)c2c1)CCC3	650 s
COc1cc(OC)cc(-c2noc(CCn3nc(-c4ccccc4)ccc3=O)n2)c1	951 s
Cc1cc(C(=O)NC(C)C)n[nH]1	592 s
CSc1ccc(CNC(=O)c2[nH]c3cc(C)sc3c2CN(C)C)cc1	689 s
Cn1ncc2c3ccccc3n(CC(=O)N3CCN(C4CCCCC4)CC3)c2c1=O	622 s
O=C(C1=CN(c2cc(F)cc(F)c2)c2ccccc2S1(=O)=O)N1CCCC1	786 s
O=C(Nc1ccccc1)N1CCC(Oc2ccccc2)C1 (stereo unspecified)	872 s
O=C(Cc1csc(SCc2ccc(Br)cc2)n1)NCc1cccs1	978 s
CCOCCCNC(=O)c1cc2n(n1)CCCN(Cc1ccccc1)C2=O	724 s
Cc1cccc(C)c1NC(=O)Nc1ccc(S(N)(=O)=O)cc1	751 s
COCCNC(=O)CN1C(=O)C2CCCCN2c2ccc(C(=O)N3CCCCC3)cc21 (stereo unspecified)	696 s
CCN(CC)S(=O)(=O)c1cccc(-c2nnc(-c3ccc(Cl)cc3)o2)c1	1140 s
CN1CCC(NC(=O)C2CCc3sc(C(=O)N4CCCCCC4)cc3C2)CC1 (stereo unspecified)	612 s
CCn1nc(CNC(=O)c2ccc(C#N)cc2)c2ccccc21	808 s
O=C(Nc1cccnc1N1CCOCC1)C1CC1	576 s
CCCn1cc(CCNS(=O)(=O)c2cccc(C(F)(F)F)c2)c2cccnc21	904 s

SMILES	RP-LC retention time
O=C(NCC1(N2CCOCC2)CCOC1)Nc1ccccc1C(F)(F)F (stereo unspecified)	596 s
CC1(C)CC(NC(=O)c2cccc(Br)c2)CC(C)(C)N1	620 s
O=S(=O)(Cc1ccccc1F)N1CCCC(Cn2c(C3CC3)nc3cccnc32)C1 (stereo unspecified)	732 s
COc1ccc(C2Cn3nnc(-c4nc(-c5ccsc5)no4)c3CO2)cc1 (stereo unspecified)	1070 s
Cc1ccc(CNC(=O)N2CC(n3cc(COc4ccc(F)cc4)nn3)C2)cc1	821 s
CCc1cccc(N2C(=O)CN(S(=O)(=O)CC)CC2(C)C(=O)NCc2ccccc2)c1 (stereo unspecified)	856 s
Cc1ccc(-n2cc3c(N4CCCC(C(=O)NCc5ccc(Cl)cc5)C4)ncnc3n2)cc1 (stereo unspecified)	750 s
O=C1NCCCCCN(C(=O)Cn2c(=O)oc3ccccc32)[C@@H]2C[C@@H](C(=O)N3CCc4ccccc4C3)C[C@H]12	864 s
CCOC(=O)c1c(C)c(CCC(=O)N2CCN(CC)CC2)n(CC)c1C	631 s
CCCN1C(=O)c2ccccc2Sc2cc(-c3noc(CNC(C)=O)n3)ccc21	775 s
O=C(CCCSc1ccc(NC(=O)c2ccc(F)cc2)nn1)Nc1nccs1	745 s
CN(C)c1ccc(CN2C(=O)CN(S(C)(=O)=O)CC2(C)C(=O)NCc2ccccc2)cc1 (stereo unspecified)	622 s
Cc1ccnn1-c1ccc(SCC(=O)Nc2ccccc2F)nn1	869 s
Cc1cc(NC(=O)Nc2cc(F)ccc2F)no1	894 s
O=C(NC1(c2nc(-c3cccnc3)no2)CCCCC1)c1ccc(F)c(F)c1	963 s
CCC(C(=O)N1CCC(c2cc3n(n2)CCCNC3=O)CC1)c1ccccc1 (stereo unspecified)	694 s
CCNc1cc(N2CCC(CCC(=O)Nc3ccc(OCC)cc3)CC2)ncn1	682 s
COc1ccc(-c2nc(C)cc(C)c2CNS(=O)(=O)c2cccs2)cc1	642 s
Cc1noc(C)c1CC(=O)N1CCCn2ccnc2C1C(C)C (stereo unspecified)	632 s
COc1ccc(C(=O)N2CCCC2c2nc(-c3ccccc3)n[nH]2)cc1 (stereo unspecified)	707 s
CS(=O)(=O)c1ccc(Nc2nc(C(=O)Nc3ccc(F)c(Cl)c3)cs2)cc1	843 s
CCN1CCCn2cc(S(=O)(=O)Nc3ccc(F)cc3Cl)cc2C1=O	738 s
COc1ccc(NC(=O)c2cn3c(n2)CCCC3)cc1F	601 s

SMILES	RP-LC retention time
CN(CCOc1ccc(CC2SC(=O)NC2=O)cc1)c1ccccn1 (stereo unspecified)	628 s
Cc1ccc(NC(=O)Cn2c(=O)nc(N3CCC(C)CC3)c3ccccc32)c(C)c1	913 s
COC1CCC12CCN(C(=O)c1ccoc1)CC2 (stereo unspecified)	723 s
CN(C)S(=O)(=O)c1ccc(-n2cnc(C(=O)N3CCN(Cc4ccccc4)CC3)c2)cc1	626 s
Cc1ccc(CN2C(=O)NC3(CCN(C(=O)c4cccn4C)CC3)C2=O)cc1	787 s
O=C(Nc1ccc(F)cc1F)N1CC(Cc2nc(-c3cnccn3)no2)C1	690 s
O=C(NCCN1CCCCCC1)C1CCCN(c2ncc(-c3ccc(F)cc3)cn2)C1 (stereo unspecified)	715 s
CC(NC(=O)Cn1ncc2c(N3CCN(c4ccccn4)CC3)ncnc21)c1ccccc1 (stereo unspecified)	616 s
O=C(Cn1cnc2nc(N3CCC(C(=O)NC4CC4)CC3)sc2c1=O)Nc1ccc2c(c1)OCO2	637 s
Cc1ccc(S(=O)(=O)c2cnc(N3CCN(c4ccccc4Cl)CC3)nc2N)cc1	1230 s
CCc1nc2cc(-c3noc(Cc4ccc(OC)cc4)n3)ccc2o1	1030 s
CN1CCCc2cc(C(CNC(=O)C(=O)Nc3ccc4c(c3)OCO4)N3CCCCC3)ccc21 (stereo unspecified)	718 s
Cc1nc2c(-c3ccc(F)cc3)c(C)nn2c(C)c1CCC(=O)N1CCN(c2ccccn2)CC1	682 s
COc1ccc(CNC(=O)C2(C)CCN(C(=O)Nc3ccc(F)c(Cl)c3)CC2)cc1	872 s
CCOC(=O)c1c(C)[nH]c(C(=O)N2CCCC(C(=O)NCCN3CCOCC3)C2)c1C (stereo unspecified)	593 s
O=C(NCc1cccc(F)c1)C1CCCN(c2nnc3c(Cl)cccn23)C1 (stereo unspecified)	701 s
Cc1cc(C)cc(NC(=O)C2CCN(S(=O)(=O)c3cn(C)cn3)CC2)c1	732 s
O=c1ccc(-c2ccc(Cl)cc2)nn1CCCNS(=O)(=O)Cc1ccccc1	579 s
Cc1nc2c(sc3nc(-c4ccccc4)ccc32)c(=O)n1CC(=O)Nc1cccc(C(C)C)c1	1210 s
c1cc(-c2nc(CC3CCCNC3)no2)ccn1 (stereo unspecified)	552 s
CCOCCCNC(=O)C1CCN(c2cc(=O)n(C)c(=O)n2CC)CC1	686 s
CCOCCCNC(=O)C1CCN(S(C)(=O)=O)c2cc(Cl)ccc2O1 (stereo unspecified)	783 s
CCc1cc(=O)n(CC(=O)Nc2cccc(C)c2C)c(N2CCOCC2)n1	764 s

SMILES	RP-LC retention time
CCc1ccc2[nH]c3c(c(=O)c2c1)CN(CC(=O)Nc1ccc(OC)c(Cl)c1)CC3	636 s
CC(=O)Nc1ccc(OC(=O)c2ccccc2OC(C)=O)cc1	853 s
Clc1ccc(-c2ccc(CNCc3ccncc3)o2)c(Cl)c1	742 s
Cc1ccc(C(=O)N2CCC(c3nc(C4CC4)n[nH]3)CC2)s1	600 s
Cc1cc(C(=O)Nc2ccc3c(c2)C(=O)N(C)CCO3)no1	624 s
CCCOc1ccc(CN2C[C@@H](CO)[C@H](N(C)C)C2)cc1OC	551 s
CC1CCN(C(=O)CN(C)S(=O)(=O)c2ccc3c(c2)CCCC(=O)N3)CC1	713 s
O=C(Cc1cccs1)N1CCN(S(=O)(=O)C2CC2)CC1	666 s
Cc1nc2cc(N3CC(C(=O)Nc4ccc(Br)c(C)c4)CC3=O)ccc2o1 (stereo unspecified)	846 s
COc1ccc(NC(=O)N2CCc3cn(C)c4cccc(c34)C2)cc1Cl	917 s
COc1cccc(CN2CCc3nc(N4CCN(c5ccccc5)CC4)ncc3C2)c1OC	762 s
Cc1cc(F)cc2c(=O)c3c([nH]c12)CCN(CC(=O)Nc1ccc(F)c(Cl)c1)C3	664 s
CCN1C(=O)NC(c2ccccc2C(F)(F)F)C2=C1CN(CCC(=O)NCCOC)C2=O (stereo unspecified)	928 s
CCOC(=O)C1CCN(S(=O)(=O)c2cccc(-c3nc(-c4ccccc4)no3)c2)CC1	1210 s
CCOc1ccccc1CNC(=O)C1CCN(C(=O)C2Sc3ccccc3NC2=O)CC1 (stereo unspecified)	779 s
O=C(NCCCO)c1ccc(CSc2nc3ccccc3[nH]2)cc1	562 s
Cc1ccc(NC(=O)N2CCN(Cc3nc4cc(C)ccc4o3)CC2)cc1	725 s
COc1ccc(NC(=O)c2noc3c2CCCCC3)cc1OC	907 s
Cc1ccc(Cl)c2c1NC(=O)C2(O)CC(=O)c1ccccc1 (stereo unspecified)	760 s
COc1ccc(NC(=O)c2cn3c(n2)CSCC3)cc1F	694 s
CCn1cc(-c2ccncc2)cc1C(=O)NCc1ccccc1Br	682 s
O=C(Nc1cc(Cl)cc(Cl)c1)N1CCc2nc[nH]c2C1	642 s
